Experiment [1] addresses T1, KRas-mediated phosphorylation of ERK in A549 cells (Homo sapiens, UniProt P01116, G12S).
T1 construct: pERK HTRF read-out
As to the kind of experiment: Inhibition of KRas-mediated phosphorylation of ERK (HTRF), A549 cells. The class given is cell-based. To be noted: HTRF pERK, 3 h incubation. For orientation: Time-resolved FRET reads energy transfer from a long-lived donor to a nearby acceptor.

Experiment [2] has as its target T2, KRas-mediated phosphorylation of ERK in H358 cells (Homo sapiens, UniProt P01116, G12C).
T2 construct: pERK HTRF read-out
As to the kind of experiment: Inhibition of KRas-mediated phosphorylation of ERK (HTRF), H358 cells. The experiment is classed as cell-based. To be noted: HTRF pERK, 3 h incubation.

The target of experiment [3] is T3, KRas-mediated phosphorylation of ERK in MKN1 cells (Homo sapiens, UniProt P01116).
T3 construct: pERK HTRF read-out
Briefly: Inhibition of KRas-mediated phosphorylation of ERK (HTRF), MKN1 cells. The experiment is classed as cell-based. To be noted: MKN1 cells (KRas WT); HTRF pERK; 3 h incubation. The protocol: Inhibition of KRas Phosphorylation of ERK (HTRF) by Exemplary Compounds of Formula (Ia) or (Ib)
Cisbio HTRF Advanced pERK Assay Catalog #64AERPEH • Cells: MKN1, PSN1 • Procedure: • 1. Day 1: Seed 6,000 cells/well −25 μl/well in 384-well white solid bottom plate; RPM1_10% FBS. Incubate overnight at 37 °C/5% CO2. • 2.

The target of the next experiment is T4, KRas G12C (Homo sapiens, UniProt P01116, G12C).
T4 construct: Biotinylated KRas (corresponding to amino acids 1-169, produced at Accelegan Inc.); biotin (biotinylated); purchased Accelegan Inc
As to the kind of experiment: KRas binding assay, TR-FRET displacement of Cy5 labelled tracer. The conditions noted are these: 60-minute incubation at room temperature, 1% DMSO, pH 7.5. The method, boiled down: (§1)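 IC50 came from fitting POC values with a four-parameter equation. Signal was read after one hour at room temperature. Protein was biotin-tagged KRas 1-169 captured by terbium streptavidin, with compound in 1% DMSO (final).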

A further experiment has as its target T5, KRas G12S (Homo sapiens, UniProt P01116, G12S).
T5 construct: Biotinylated KRas (corresponding to amino acids 1-169, produced at Accelegan Inc.); biotin (biotinylated); purchased Accelegan Inc
The experiment is described as above. To be noted: 60-minute incubation at room temperature, 1% DMSO, pH 7.5. The method, boiled down:
as §1

The next experiment has as its target T6, KRas WT (Homo sapiens, UniProt P01116).
T6 construct: Biotinylated KRas (corresponding to amino acids 1-169, produced at Accelegan Inc.); biotin (biotinylated); purchased Accelegan Inc
The experiment is described as above. To be noted: 60-minute incubation at room temperature, 1% DMSO, pH 7.5. In outline: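 Room-temperature incubation (60 min) of compound with biotinylated KRas 1-169, tracer and Tb-streptavidin preceded the TR-FRET read. Final DMSO was 1%; buffer pH 7.5. Percent-of-control values went into a 4-parameter equation to give IC50.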

T4 sequence (P01116 1-169 isoform P01116-2 G12C): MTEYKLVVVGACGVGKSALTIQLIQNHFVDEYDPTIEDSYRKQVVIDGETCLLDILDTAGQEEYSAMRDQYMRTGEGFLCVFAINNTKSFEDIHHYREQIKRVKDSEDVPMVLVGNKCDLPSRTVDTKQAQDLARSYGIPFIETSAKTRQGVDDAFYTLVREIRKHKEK
T6 sequence (P01116 1-169 isoform P01116-2): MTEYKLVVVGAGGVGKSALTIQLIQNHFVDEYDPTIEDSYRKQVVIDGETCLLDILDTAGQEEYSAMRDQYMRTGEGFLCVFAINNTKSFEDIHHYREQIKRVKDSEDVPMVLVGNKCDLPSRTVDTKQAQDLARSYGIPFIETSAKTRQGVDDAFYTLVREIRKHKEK
T2 sequence (P01116 1-188 isoform P01116-2 G12C): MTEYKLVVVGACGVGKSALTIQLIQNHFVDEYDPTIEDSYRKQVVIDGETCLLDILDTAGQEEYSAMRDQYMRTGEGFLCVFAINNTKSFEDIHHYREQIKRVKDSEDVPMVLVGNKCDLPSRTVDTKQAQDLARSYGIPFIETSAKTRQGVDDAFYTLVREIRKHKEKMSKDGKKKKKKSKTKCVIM
T3 sequence (P01116 1-188 isoform P01116-2): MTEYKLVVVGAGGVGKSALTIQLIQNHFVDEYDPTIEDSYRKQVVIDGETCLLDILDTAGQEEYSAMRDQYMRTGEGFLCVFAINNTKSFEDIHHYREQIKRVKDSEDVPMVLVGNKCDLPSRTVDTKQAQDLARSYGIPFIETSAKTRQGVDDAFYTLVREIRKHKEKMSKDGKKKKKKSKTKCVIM
T1 sequence (P01116 1-188 isoform P01116-2 G12S): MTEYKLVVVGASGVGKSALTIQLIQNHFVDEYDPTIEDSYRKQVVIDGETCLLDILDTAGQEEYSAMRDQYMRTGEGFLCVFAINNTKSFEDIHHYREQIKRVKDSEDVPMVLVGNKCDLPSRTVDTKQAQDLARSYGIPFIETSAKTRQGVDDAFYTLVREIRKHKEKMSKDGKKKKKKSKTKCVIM
T5 sequence (P01116 1-169 isoform P01116-2 G12S): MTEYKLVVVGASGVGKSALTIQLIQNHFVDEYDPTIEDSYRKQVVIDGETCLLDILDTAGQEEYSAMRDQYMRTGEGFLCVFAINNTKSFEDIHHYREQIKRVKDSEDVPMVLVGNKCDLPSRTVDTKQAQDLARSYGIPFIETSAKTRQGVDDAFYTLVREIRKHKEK

What is called IC50 is the concentration that gives 50% inhibition. Read a low IC50 as higher potency. As to `CCc1c(F)ccc2cc(O)cc(N3CCc4c(nc(OC[C@@]56CCCN5C[C@H](F)C6)nc4N4CCCCCC(C(=O)n5ccc(C)n5)C4)C3)c12` (stereo partly drawn) [Example 192, (1-(7-(8-ethyl-7-fluoro-3-hydroxynaphthalen-1-yl)-2-(((2R,7aS)-2-fluorotetrahydro-1H-pyrrolizin-7a(5H)-yl)methoxy)-5,6,7,8-tetrahydropyrido[3,4-d]pyrimidin-4-yl)azocan-3-yl)(3-methyl-1H-pyrazol-1-yl)methanone], the IC50 in experiment [1] is 4250 nM; in experiment [2], 160 nM; in experiment [3], 105 nM; at KRas G12C, 27 nM; at KRas G12S, 35 nM; on KRas WT, 23 nM.

For `Cc1ccn(C(=O)CCCN(C)c2nc(OC[C@@]34CCCN3C[C@H](F)C4)nc3c(F)c(-c4ccc(F)c5sc(N)c(C#N)c45)c(Cl)cc23)n1` [Example 141, 2-amino-4-(6-chloro-8-fluoro-2-(((2R,7aS)-2-fluorotetrahydro-1H-pyrrolizin-7a(5H)-yl)methoxy)-4-(methyl (4-(3-methyl-1H-pyrazol-1-yl)-4-oxobutyl)amino)quinazolin-7-yl)-7-fluorobenzo[b]thiophene-3-carbonitrile], the IC50 in experiment [1] was 10 nM; in experiment [2], 26 nM; in experiment [3] it was 363 nM; on KRas G12C it was less than 2 nM; on KRas G12S, less than 2 nM; at KRas WT it was 11 nM.

As to `CN(C(=O)CCCN(C)c1nc(OC[C@@]23CCCN2C[C@H](F)C3)nc2c(F)c(-c3ccc(F)c4sc(N)c(C#N)c34)c(Cl)cc12)C(=O)c1ccn(C)n1` [Example 292, N-(4-((7-(2-amino-3-cyano-7-fluorobenzo[b]thiophen-4-yl)-6-chloro-8-fluoro-2-(((2R,7aS)-2-fluorotetrahydro-1H-pyrrolizin-7a(5H)-yl)methoxy)quinazolin-4-yl)(methyl)amino)butanoyl)-N, 1-dimethyl-1H-pyrazole-3-carboxamide], the IC50 in experiment [1] was 27 nM; in experiment [2] it was 30 nM; in experiment [3], 80 nM; at KRas G12C it was 3 nM; at KRas G12S it was 5 nM; on KRas WT, 11 nM.

For `CCc1c(F)ccc2cc(O)cc(-c3ncc4c(N5C[C@@H]6C[C@H](C(=O)n7ccc(C)n7)[C@@H]6C5)nc(OC[C@@]56CCCN5C[C@H](F)C6)nc4c3F)c12` [Example 211, ((1R,5R,6S)-3-(7-(8-ethyl-7-fluoro-3-hydroxynaphthalen-1-yl)-8-fluoro-2-(((2R,7aS)-2-fluorotetrahydro-1H-pyrrolizin-7a(5H)-yl)methoxy)pyrido[4,3-d]pyrimidin-4-yl)-3-azabicyclo[3.2.0]heptan-6-yl)(3-methyl-1H-pyrazol-1-yl)methanone], the IC50 came out at 23 nM in experiment [1]; 518 nM in experiment [2]; 567 nM in experiment [3]; 61 nM at KRas G12C; 15 nM at KRas G12S; 314 nM at KRas WT.

Turning to `Cc1ccn(C(=O)CCCNc2cc(O[C@@H](C)[C@@H]3CCCN3C)nc(-c3noc([C@]4(C)CCCc5sc(N)c(C#N)c54)n3)n2)n1` [Example 324, (R)-2-amino-4-methyl-4-(3-(4-((4-(3-methyl-1H-pyrazol-1-yl)-4-oxobutyl)amino)-6-((S)-1-((S)-1-methylpyrrolidin-2-yl)ethoxy)pyrimidin-2-yl)-1,2,4-oxadiazol-5-yl)-4,5,6,7-tetrahydrobenzo[b]thiophene-3-carbonitrile], the half-maximal inhibitory concentration (IC50) in experiment [1] is 9 nM; in experiment [2] it was 262 nM; in experiment [3], 651 nM; on KRas G12C, less than 2 nM; at KRas G12S, less than 2 nM; on KRas WT, 19 nM.

For `CCc1c(F)ccc2cc(O)cc(-c3ncc4c(N5CCCC(C(=O)n6ccc(C)n6)C5)nc(OC[C@@]56CCCN5C[C@H](F)C6)nc4c3F)c12` (stereo partly drawn) [Example 65, (1-(7-(8-ethyl-7-fluoro-3-hydroxynaphthalen-1-yl)-8-fluoro-2-(((2R,7aS)-2-fluorotetrahydro-1H-pyrrolizin-7a(5H)-yl)methoxy)pyrido[4,3-d]pyrimidin-4-yl)piperidin-3-yl)(3-methyl-1H-pyrazol-1-yl)methanone], the IC50 in experiment [1] was greater than 10000 nM; in experiment [2], 415 nM; in experiment [3], 266 nM; at KRas G12C, 28 nM; at KRas G12S, 14 nM; at KRas WT, 17 nM.

As for `Cc1ccn(C(=O)[C@H]2CCCN(c3nc(OC[C@@]45CCCN4C[C@H](F)C5)nc4c(F)c(-c5ccc(F)c6sc(N)c(C#N)c56)c(Cl)cc34)CC2)n1` (atropisomer, axis not shown; (aS)) [Example 170, 2-amino-4-((S)-6-chloro-8-fluoro-2-(((2R,7aS)-2-fluorotetrahydro-1H-pyrrolizin-7a(5H)-yl)methoxy)-4-((S)-4-(3-methyl-1H-pyrazole-1-carbonyl)azepan-1-yl)quinazolin-7-yl)-7-fluorobenzo[b]thiophene-3-carbonitrile], the half-inhibitory concentration (IC50) was determined as 2 nM in experiment [1]; 3 nM in experiment [2]; 53 nM in experiment [3]; 2 nM at KRas G12C; 2 nM at KRas G12S; 9 nM at KRas WT.

In the case of `N#Cc1c(N)sc2c(F)ccc(-c3c(Cl)cc4c(N5CCC(C(=O)Oc6ccc(F)cc6)CC5)nc(OC[C@@]56CCCN5C[C@H](F)C6)nc4c3F)c12` [Example 299, 4-fluorophenyl 1-(7-(2-amino-3-cyano-7-fluorobenzo[b]thiophen-4-yl)-6-chloro-8-fluoro-2-(((2R,7aS)-2-fluorotetrahydro-1H-pyrrolizin-7a(5H)-yl)methoxy)quinazolin-4-yl)piperidine-4-carboxylate], the 50% inhibitory concentration (IC50) in experiment [1] is 93 nM; in experiment [2] it was 12 nM; in experiment [3], 323 nM; at KRas G12C, 9 nM; at KRas G12S, 22 nM; on KRas WT it was 178 nM.

For the compound `N#Cc1c(N)sc2c(F)ccc(-c3c(Cl)cc4c(N5CCN(C(=O)n6nccn6)CC5)nc(OC[C@@]56CCCN5C[C@H](F)C6)nc4c3F)c12` [Example 191, 4-(4-(4-(2H-1,2,3-triazole-2-carbonyl)piperazin-1-yl)-6-chloro-8-fluoro-2-(((2R,7aS)-2-fluorotetrahydro-1H-pyrrolizin-7a(5H)-yl)methoxy)quinazolin-7-yl)-2-amino-7-fluorobenzo[b]thiophene-3-carbonitrile], the IC50 in experiment [1] is 290 nM; in experiment [2] it was 1 nM; in experiment [3], 15 nM; on KRas G12C, less than 2 nM; at KRas G12S, 7 nM; on KRas WT, 6 nM.

Consider `Cc1ccn(C(=O)CCCCNc2nc(OC[C@@]34CCCN3C[C@H](F)C4)nc3c(F)c(-c4ccc(F)c5sc(N)c(C#N)c45)c(Cl)cc23)n1` [Example 262, 2-amino-4-(6-chloro-8-fluoro-2-(((2R,7aS)-2-fluorotetrahydro-1H-pyrrolizin-7a(5H)-yl)methoxy)-4-((5-(3-methyl-1H-pyrazol-1-yl)-5-oxopentyl)amino)quinazolin-7-yl)-7-fluorobenzo[b]thiophene-3-carbonitrile], for which the IC50 in experiment [1] came to 381 nM; in experiment [2], 1170 nM; in experiment [3], 593 nM; on KRas G12C, 15 nM; at KRas G12S, 25 nM; on KRas WT it was 25 nM.

For the compound `CC(=O)N(C)C(=O)CCCNc1nc(OC[C@@]23CCCN2C[C@H](F)C3)nc2c(F)c(-c3ccc(F)c4sc(N)c(C#N)c34)c(Cl)cc12` [Example 258, N-acetyl-4-((7-(2-amino-3-cyano-7-fluorobenzo[b]thiophen-4-yl)-6-chloro-8-fluoro-2-(((2R,7aS)-2-fluorotetrahydro-1H-pyrrolizin-7a(5H)-yl)methoxy)quinazolin-4-yl)amino)-N-methylbutanamide], the IC50 came out at 29 nM in experiment [1]; 38 nM in experiment [2]; 84 nM in experiment [3]; 3 nM on KRas G12C; 4 nM at KRas G12S; 9 nM at KRas WT.

Take `CCc1c(F)ccc2cc(O)cc(-c3ncc4c(N5CCC(C(=O)N(C)S(C)(=O)=O)CC5)nc(OC[C@@]56CCCN5C[C@H](F)C6)nc4c3F)c12` [Example 257, 1-(7-(8-ethyl-7-fluoro-3-hydroxynaphthalen-1-yl)-8-fluoro-2-(((2R,7aS)-2-fluorotetrahydro-1H-pyrrolizin-7a(5H)-yl)methoxy)pyrido[4,3-d]pyrimidin-4-yl)-N-methyl-N-(methylsulfonyl)piperidine-4-carboxamide]: the concentration for half-maximal inhibition (IC50) worked out at 677 nM in experiment [1]; 21 nM in experiment [2]; 726 nM in experiment [3]; 5 nM on KRas G12C; 499 nM on KRas G12S; 214 nM on KRas WT.

The record behind these values is patent US20260356856A1, “KRAS G12S AND G12C INHIBITORS” (MIRATI THERAPEUTICS, INC., priority 2023, published 2026).
